Data: PubChem BioAssay AID2060496 (Molecular Pharmacology Branch, DTP, NCI, 2025)
pIC50: −log10 of the molar value.

Tested on: 276233-004-R-J1-PDC complex spheroid viability
Experiment: Anticancer human tumor 276233-004-R-J1-PDC patient-derived colon adenocarcinoma cell line growth inhibition [GQUAD]
Details: for pIC50: curve of first compound; for viability, T/C: stronger effect = lower value
Excerpt: DNA G-quadruplex Stabilizer Agents in Combinations in Complex Spheroids
A high-throughput screen of multi-cell type tumor spheroids was designed to identify active combinations of DNA G-quadruplex stabilizer agents and targeted small molecules. Complex spheroids include a stromal component modeled by human endothelial cells (HUVEC) and fibroblasts modeled by human mesenchymal stem cells (MSCs). The concentration ranges selected for each drug and investigational agent were based upon clinically achievable concentrations if the clinical Cmax of the agent was known.
Compounds. The drugs and investigational agents: pidnarulex (CX-5461; NSC782164), APTO-253 (NSC789042), BRACO-19 (NSC847499), peposertib (NSC802822), ceralasertib (NSC780249), elimusertib (NSC800525), camonsertib (NSC841442), AZD-1390 (NSC803789), olaparib (NSC753686), talazoparib (NSC767125), ART-558 (NSC835418), sotorasib (NSC818433), MRTX-1133 (NSC836407), SN-38 (NSC673596), topotecan (NSC609699), etoposide (NSC141540), doxorubicin (NSC123127), gemcitabine (NSC613327), 5-fluorouracil (NSC19893), paclitaxel (NSC125973), vemurafenib (NSC761431), panobinostat (NSC761190), R-306465 (JNJ-16241199; NSC773264), adavosertib (NSC754352), TP-3654 (NSC805149), carboplatin (NSC241240), KSQ-4279 (NSC840948), and staurosporine (NSC755774) were obtained from the National Cancer Institute (NCI) Developmental Therapeutics Program Chemical Repository (34). The FDA-approved anticancer drug set is available from the NCI Developmental Therapeutics Program. […] The stock solutions were prepared in dimethyl sulfoxide (DMSO, Sigma-Aldrich, St. Louis, MO, cat. D2650) at 800-fold the tested concentration and stored at -70 degrees C prior to their use. All drugs and investigational agents were tested over a range starting from a high concentration at or near the clinical Cmax and decreasing in half-log increments. If the clinical Cmax for an agent had not been determined, the highest concentration tested was 10 microM.
2.3 Cell Culture. All cells were maintained in an incubator at 37 degrees C and 5% CO2 with 95% humidity. The PDC lines were cultured according to standard operating procedures established by the NCI PDMR. All PDCs were thawed and cultured in Matrigel-coated flasks prepared with a working solution of 1X Ham's F-12 nutrient mix, without supplementation (Invitrogen, cat. 11765054), 100 U/mL penicillin-streptomycin (Invitrogen, cat. 15140122), and 2.5% Matrigel (Corning Inc., cat. 354248) for the first three passages. The 857933-349-R-J2-PDC line was cultured in 6C/Colon 1B media, which includes advanced DMEM/F-12 (Thermo Fisher Scientific, cat. 12634028), 10 mM HEPES (Thermo Fisher Scientific, cat. 15630080), 1X GlutaMAX supplement (Thermo Fisher Scientific, cat. 35050061), 0.1 mg/mL primocin (InvivoGen, cat. ant-pm-2), 10% defined fetal bovine serum, heat inactivated (HyClone Laboratories Inc., cat. SH30070.03HI), 50% L-WRN conditioned media (ATCC, cat. CRL-3276), 1.25 mM N-Acetyl-L-cysteine (Sigma-Aldrich, cat. A9165), 10 mM nicotinamide (Sigma-Aldrich, cat. N0636), 1X B-27 supplement (Thermo Fisher Scientific, cat. 17504044), 1X N-2 supplement (Thermo Fisher Scientific, cat. 17502048), 10 microM Y-27632 dihydrochloride (Tocris Bioscience, cat. 1254), and 50 ng/mL human EGF recombinant protein (Thermo Fisher Scientific, cat. PHG0311). The 485176-168-R4-J1-PDC line was cultured in Panc media, which includes all 6C/Colon 1B media components plus 100 ng/mL human FGF-10 (Thermo Fisher Scientific, cat. 100-26), 500 nM SB-431542 (Selleckchem, cat. S1067), and gastrin (Tocris, cat. 3006).
[…]

[1] = second compound 0.0316 µM, first compound 0.0316 µM
[2] = second compound 0.0316 µM, first compound 0.316 µM
[3] = second compound 0.1 µM, first compound 0.0316 µM
[4] = second compound 0.1 µM, first compound 0.316 µM
[5] = second compound 0.316 µM, first compound 0.0316 µM
[6] = second compound 0.316 µM, first compound 0.316 µM
[7] = second compound 1 µM, first compound 0.0316 µM
[8] = second compound 1 µM, first compound 0.316 µM
[9] = second compound 3.16 µM, first compound 0.0316 µM
[10] = second compound 3.16 µM, first compound 0.316 µM
[11] = second compound 10 µM, first compound 0.0316 µM
[12] = second compound 10 µM, first compound 0.316 µM
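Note: spheroids exposed to drugs for seven days.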
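Throughout, for viability, T/C: 100% = DMSO vehicle control viability.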

COc1ccc([C@@H](O)c2cc(-c3ncnc4cc(N5CCOCC5)ccc34)c(F)cc2Cl)nn1 + CN(C)c1ccc(Nc2c3ccc(NC(=O)CCN4CCCC4)cc3nc3cc(NC(=O)CCN4CCCC4)ccc23)cc1
pIC50 (second compound 0.0316 µM): < 5.00
pIC50 (second compound 0.1 µM): 5.26
pIC50 (second compound 0.316 µM): 6.21
pIC50 (second compound 1 µM): 5.46
pIC50 (second compound 3.16 µM): 6.90
pIC50 (second compound 10 µM): 6.87
viability, T/C [1]: 88.8%
viability, T/C (second compound 0.0316 µM, first compound 0.1 µM): 94.6%
viability, T/C [2]: 87.7%
viability, T/C (second compound 0.0316 µM, first compound 1 µM): 74.5%
viability, T/C (second compound 0.0316 µM, first compound 3.16 µM): 61%
viability, T/C (second compound 0.0316 µM, first compound 10 µM): 54.2%
viability, T/C [3]: 79.4%
viability, T/C (second compound 0.1 µM, first compound 0.1 µM): 79.3%
viability, T/C [4]: 76.3%
viability, T/C (second compound 0.1 µM, first compound 1 µM): 70.2%
viability, T/C (second compound 0.1 µM, first compound 3.16 µM): 52.9%
viability, T/C (second compound 0.1 µM, first compound 10 µM): 46.8%
viability, T/C [5]: 78%
viability, T/C (second compound 0.316 µM, first compound 0.1 µM): 63.7%
viability, T/C [6]: 52%
viability, T/C (second compound 0.316 µM, first compound 1 µM): 49.1%
viability, T/C (second compound 0.316 µM, first compound 3.16 µM): 43.7%
viability, T/C (second compound 0.316 µM, first compound 10 µM): 39.1%
viability, T/C [7]: 56.5%
viability, T/C (second compound 1 µM, first compound 0.1 µM): 49.5%
viability, T/C [8]: 62.5%
viability, T/C (second compound 1 µM, first compound 1 µM): 48.8%
viability, T/C (second compound 1 µM, first compound 3.16 µM): 52.4%
viability, T/C (second compound 1 µM, first compound 10 µM): 38.2%
viability, T/C [9]: 47.4%
viability, T/C (second compound 3.16 µM, first compound 0.1 µM): 54.2%
viability, T/C [10]: 47.6%
viability, T/C (second compound 3.16 µM, first compound 1 µM): 42.2%
viability, T/C (second compound 3.16 µM, first compound 3.16 µM): 39%
viability, T/C (second compound 3.16 µM, first compound 10 µM): 40.1%
viability, T/C [11]: 48.3%
viability, T/C (second compound 10 µM, first compound 0.1 µM): 56.2%
viability, T/C [12]: 37.6%
viability, T/C (second compound 10 µM, first compound 1 µM): 41.8%
viability, T/C (second compound 10 µM, first compound 3.16 µM): 46.8%
viability, T/C (second compound 10 µM, first compound 10 µM): 47.5%

CC[C@@]1(O)C(=O)OCc2c1cc1n(c2=O)Cc2cc3c(CN(C)C)c(O)ccc3nc2-1 + CN(C)c1ccc(Nc2c3ccc(NC(=O)CCN4CCCC4)cc3nc3cc(NC(=O)CCN4CCCC4)ccc23)cc1
pIC50 (second compound 0.0316 µM): < 6.50
pIC50 (second compound 0.1 µM): < 6.50
pIC50 (second compound 0.316 µM): < 6.50
pIC50 (second compound 1 µM): < 6.50
pIC50 (second compound 3.16 µM): 7.03
pIC50 (second compound 10 µM): 7.06
viability, T/C (second compound 0.0316 µM, first compound 0.000999 µM): 89.7%
viability, T/C (second compound 0.0316 µM, first compound 0.00316 µM): 110%
viability, T/C (second compound 0.0316 µM, first compound 0.00999 µM): 91.8%
viability, T/C [1]: 103%
viability, T/C (second compound 0.0316 µM, first compound 0.0999 µM): 95.5%
viability, T/C [2]: 91.2%
viability, T/C (second compound 0.1 µM, first compound 0.000999 µM): 84.2%
viability, T/C (second compound 0.1 µM, first compound 0.00316 µM): 87.7%
viability, T/C (second compound 0.1 µM, first compound 0.00999 µM): 84.9%
viability, T/C [3]: 112%
viability, T/C (second compound 0.1 µM, first compound 0.0999 µM): 86.1%
viability, T/C [4]: 85.4%
viability, T/C (second compound 0.316 µM, first compound 0.000999 µM): 68.2%
viability, T/C (second compound 0.316 µM, first compound 0.00316 µM): 84.2%
viability, T/C (second compound 0.316 µM, first compound 0.00999 µM): 66.5%
viability, T/C [5]: 58.5%
viability, T/C (second compound 0.316 µM, first compound 0.0999 µM): 64.8%
viability, T/C [6]: 82%
viability, T/C (second compound 1 µM, first compound 0.000999 µM): 62.6%
viability, T/C (second compound 1 µM, first compound 0.00316 µM): 56.4%
viability, T/C (second compound 1 µM, first compound 0.00999 µM): 66.7%
viability, T/C [7]: 51.6%
viability, T/C (second compound 1 µM, first compound 0.0999 µM): 77.5%
viability, T/C [8]: 57.5%
viability, T/C (second compound 3.16 µM, first compound 0.000999 µM): 64.1%
viability, T/C (second compound 3.16 µM, first compound 0.00316 µM): 61.3%
viability, T/C (second compound 3.16 µM, first compound 0.00999 µM): 56.2%
viability, T/C [9]: 50%
viability, T/C (second compound 3.16 µM, first compound 0.0999 µM): 52.5%
viability, T/C [10]: 46.8%
viability, T/C (second compound 10 µM, first compound 0.000999 µM): 58%
viability, T/C (second compound 10 µM, first compound 0.00316 µM): 58.5%
viability, T/C (second compound 10 µM, first compound 0.00999 µM): 46.7%
viability, T/C [11]: 66.1%
viability, T/C (second compound 10 µM, first compound 0.0999 µM): 43.8%
viability, T/C [12]: 39.8%
